Measured values taken from patent publication US5948786A, “Piperidinylpyrimidine derivatives” (Sumitomo Pharmaceuticals Company, Limited, priority 1996, dated 1999).

System: TNF α production from mouse macrophages
Experiment: Inhibitory activity of compound on TNF α Production from mouse macrophages (LPS-induced PEC's)
Format: cell-based
Settings: Macrophage, LPS 10 μg/ml, 18 hours
Method: BALB/c mice (female, 5-7 weeks old, Charles River Japan, Tokyo, Japan) were injected i.p. with 1 ml of 2.4% thioglycollate broth. After 4 days, the mice were sacrificed. Peritoneal exudated cells (PEC's) were collected from the peritoneal cavity by washing with minimum essential medium (MEM, Handai biseibutubyou kenkyukai, Osaka, Japan) containing 5 U/ml heparin, 1% fetal bovine serum (FBS, Filtron, Victoria, Australia) and antibiotics. The cells were washed two times with MEM, suspended with MEM containing 10% FBS (complete MEM, cMEM) and seeded into 96-well culture plates (Costar, Cambridge, Mass., USA) at 2×10^5 cells/well. The cells were incubated for 1 hour at 37° C. in a humidified 5% CO2 incubator and washed two times to remove non-adherent cells.
TNF α was induced by 10 μg/ml of LPS (E. coli O111B4, DIFCO, Detroit, Mich., USA) the cells were cultured for 18 hours at 37° C. A compound of the present invention was dissolved in DMSO and added to the culture simultaneously with LPS. The final DMSO concentration was below 0.1%. The TNF α concentration in supernatant and recombinant mouse TNF α standard (rm-TNF α, Genzyme, Mass., USA) were incubated overnight at 4° C. in a 96-well plate coated with anti-mouse TNF α monoclonal antibody (PharMingen, San Diego, Calif., USA) that previously had been blocked with 10% FBS. Each well of the plate first was incubated at room temperature with biotinylated anti-mouse TNF α polyclonal antibodies (PharMingen) for 45 minutes, then with peroxidase-conjugated streptavidin (Kirkegaard & Perry Laboratories Inc., Gaitherburg, Md., USA) for 30 minutes. After each incubation, the plate was washed 4 to 8 times with PBS containing 0.2% Tween 20. TMB (Kirkegaard & Perry Laboratories Inc.) was the peroxidase substrate used and, the absorbance of each well was quantified at 450 nm by a microplatereader (Molecular Devices Corp., CA, USA). TNF α levels in the supernatant were quantified with rm-TNF α as the standard.

SMILES	inhibition at 30 µM
COc1ccc(Cc2cc(C3CCN(C(=O)CCNC(=O)OC(C)(C)C)CC3)nc(N)n2)cc1 [Example 176, 2-amino-4-[1-(3-t-butoxycarbonylaminopropanoyl)-4-piperidinyl]-6-(4-methoxyphenylmethyl)pyrimidine]	60%
COc1ccc(Cc2cc(C3CCN(C(=O)CCO)CC3)nc(N)n2)cc1 [Example 177]	46%
COc1ccc(Cc2cc(C3CCN(C(=O)c4ccccc4OC)CC3)nc(N)n2)cc1 [Example 178]	76%
COc1ccc(Cc2cc(C3CCN(C(=O)c4cccc(OC)c4)CC3)nc(N)n2)cc1 [Example 179]	82%
COc1ccc(Cc2cc(C3CCN(C(=O)c4ccc(OC)cc4)CC3)nc(N)n2)cc1 [Example 180]	70%
COc1ccc(Cc2cc(C3CCN(C(=O)c4ccccc4Cl)CC3)nc(N)n2)cc1 [Example 181]	26%
COc1ccc(Cc2cc(C3CCN(C(=O)c4cccc(Cl)c4)CC3)nc(N)n2)cc1 [Example 182]	46%
COc1ccc(Cc2cc(C3CCN(C(=O)c4ccc(Cl)cc4)CC3)nc(N)n2)cc1 [Example 183]	54%
COc1ccc(Cc2cc(C3CCN(C(=O)c4ccccc4[N+](=O)[O-])CC3)nc(N)n2)cc1 [Example 184]	73%
COc1ccc(Cc2cc(C3CCN(C(=O)c4cccc([N+](=O)[O-])c4)CC3)nc(N)n2)cc1 [Example 185]	69%
COc1ccc(Cc2cc(C3CCN(C(=O)c4ccc([N+](=O)[O-])cc4)CC3)nc(N)n2)cc1 [Example 186]	67%
COc1ccc(Cc2cc(C3CCN(C(=O)c4ccccn4)CC3)nc(N)n2)cc1 [Example 194]	9%
COc1ccc(Cc2cc(C3CCN(C(=O)c4cccnc4)CC3)nc(N)n2)cc1 [Example 195]	29%
COc1ccc(Cc2cc(C3CCN(C(=O)c4ccncc4)CC3)nc(N)n2)cc1 [Example 196]	57%
COc1ccc(Cc2cc(C3CCN(C(=O)c4cccc(OC)c4OC)CC3)nc(N)n2)cc1 [Example 197]	29%
COc1ccc(Cc2cc(C3CCN(C(=O)c4ccc(OC)cc4OC)CC3)nc(N)n2)cc1 [Example 198]	29%
COc1ccc(Cc2cc(C3CCN(C(=O)c4ccc(OC)c(OC)c4)CC3)nc(N)n2)cc1 [Example 201]	46%
COc1ccc(Cc2cc(C3CCN(C(=O)c4ccc(Cl)cc4Cl)CC3)nc(N)n2)cc1 [Example 204]	84%
COc1ccc(Cc2cc(C3CCN(C(=O)c4cc(Cl)ccc4Cl)CC3)nc(N)n2)cc1 [Example 205]	51%
COc1ccc(Cc2cc(C3CCN(C(=O)c4ccc(Cl)c(Cl)c4)CC3)nc(N)n2)cc1 [Example 207]	76%
COc1ccc(Cc2cc(C3CCN(C(=O)c4cccc5ccccc45)CC3)nc(N)n2)cc1 [Example 211]	80%
COc1ccc(Cc2cc(C3CCN(C(=O)c4ccc(OC)c(OC)c4OC)CC3)nc(N)n2)cc1 [Example 213]	43%
COc1ccc(Cc2cc(C3CCN(C(=O)c4c(OC)ccc(OC)c4OC)CC3)nc(N)n2)cc1 [Example 214]	13%
COc1ccc(Cc2cc(C3CCN(C(=O)c4cc(OC)c(OC)c(OC)c4)CC3)nc(N)n2)cc1 [Example 217]	44%
COc1ccc(Cc2cc(C3CCN(C(=O)c4cc(Cl)cc(Cl)c4Cl)CC3)nc(N)n2)cc1 [Example 218]	55%
COc1ccc(Cc2cc(C3CCN(C(=O)c4c(Cl)ccc(Cl)c4Cl)CC3)nc(N)n2)cc1 [Example 219]	75%
COc1ccc(Cc2cc(C3CCN(C(=O)c4c(Cl)cc(Cl)cc4Cl)CC3)nc(N)n2)cc1 [Example 220]	75%

SMILES	inhibition at 30 µM
COc1ccc(Cc2cc(C3CCN(C(=O)Cc4ccccc4OC)CC3)nc(N)n2)cc1 [Example 222]	36%
COc1ccc(Cc2cc(C3CCN(C(=O)Cc4cccc(OC)c4)CC3)nc(N)n2)cc1 [Example 223]	82%
COc1ccc(CC(=O)N2CCC(c3cc(Cc4ccc(OC)cc4)nc(N)n3)CC2)cc1 [Example 224]	73%
COc1ccc(Cc2cc(C3CCN(C(=O)Cc4ccccc4Cl)CC3)nc(N)n2)cc1 [Example 225]	43%
COc1ccc(Cc2cc(C3CCN(C(=O)Cc4cccc(Cl)c4)CC3)nc(N)n2)cc1 [Example 226]	69%
COc1ccc(Cc2cc(C3CCN(C(=O)Cc4ccc(Cl)cc4)CC3)nc(N)n2)cc1 [Example 227]	63%
COc1ccc(Cc2cc(C3CCN(C(=O)Cc4ccc([N+](=O)[O-])cc4)CC3)nc(N)n2)cc1 [Example 233]	54%
COc1ccc(Cc2cc(C3CCN(C(=O)Cc4ccc(OC)c(OC)c4)CC3)nc(N)n2)cc1 [Example 237]	87%
COc1ccc(Cc2cc(C3CCN(C(=O)Cc4cc(OC)cc(OC)c4)CC3)nc(N)n2)cc1 [Example 238]	96%
COc1ccc(Cc2cc(C3CCN(C(=O)Cc4ccc(Cl)cc4Cl)CC3)nc(N)n2)cc1 [Example 239]	99%
COc1ccc(Cc2cc(C3CCN(C(=O)Cc4ccc(Cl)c(Cl)c4)CC3)nc(N)n2)cc1 [Example 241]	95%
COc1ccc(Cc2cc(C3CCN(C(=O)Cc4ccc([N+](=O)[O-])cc4[N+](=O)[O-])CC3)nc(N)n2)cc1 [Example 242]	31%
COc1ccc(Cc2cc(C3CCN(C(=O)Cc4ccc5c(c4)OCO5)CC3)nc(N)n2)cc1 [Example 243]	93%
COc1ccc(Cc2cc(C3CCN(C(=O)Cc4c(Cl)ccc(Cl)c4Cl)CC3)nc(N)n2)cc1 [Example 244]	98%
CCCCCCCC(=O)N1CCC(c2cc(Cc3ccc(Cl)cc3)nc(N)n2)CC1 [Example 247]	21%
CCCCCCCCC(=O)N1CCC(c2cc(Cc3ccc(Cl)cc3)nc(N)n2)CC1 [Example 248]	-6%
Nc1nc(Cc2ccc(Cl)cc2)cc(C2CCN(C(=O)c3ccc4c(c3)OCO4)CC2)n1 [Example 250]	91%
COc1ccc(CC(=O)N2CCC(c3cc(Cc4ccc(Cl)cc4)nc(N)n3)CC2)cc1 [Example 251]	98%
Nc1nc(Cc2ccc(Cl)cc2)cc(C2CCN(C(=O)Cc3ccc(Cl)cc3)CC2)n1 [Example 252]	96%
CCCCCCCC(=O)N1CCC(c2cc(CCc3ccccc3)nc(N)n2)CC1 [Example 255]	47%
CCCCCCCCC(=O)N1CCC(c2cc(CCc3ccccc3)nc(N)n2)CC1 [Example 256]	75%
CCCCCCCCCC(=O)N1CCC(c2cc(CCc3ccccc3)nc(N)n2)CC1 [Example 257]	90%
COc1ccc(CC(=O)N2CCC(c3cc(CCc4ccccc4)nc(N)n3)CC2)cc1 [Example 261]	42%
Nc1nc(CCc2ccccc2)cc(C2CCN(C(=O)Cc3ccc(Cl)cc3)CC2)n1 [Example 262]	43%
Nc1nc(CCc2ccccc2)cc(C2CCN(C(=O)Cc3ccc([N+](=O)[O-])cc3)CC2)n1 [Example 263]	37%
Nc1nc(C2CCN(C(=O)OCc3ccccc3)CC2)c2ccccc2n1 [Example 269]	77%
Nc1nc(C2CCN(S(=O)(=O)Cc3ccccc3)CC2)c2ccccc2n1 [Example 272]	5%
